Values after ≈ are worked out from the molar mass of the structure shown. Like-named read-outs stand apart in the source and are kept apart here.
Experiments:
Assay type in all cases: cell-based
[1] = test system: A. fumigatus GC 3092; assay: Antifungal activity, microtiter broth dilution MIC
Description: (§1) The antifungal activity for the 1-oxorapamycins of this invention was confirmed in a standard pharmacological test procedure which measured the ability of the compound being evaluated to inhibit fungal growth. 1-Oxorapamycin (Compound I), 1-oxorapamycin 42-ester with 3-hydroxy-2-(hydroxymethyl)-2-methylpropionic acid (Compound II), and 42-O-(2-hydroxy)ethyl 1-oxorapamycin (Compound III) were evaluated as representative compounds of this invention. The procedure used and results obtained are briefly described below. A 96 U-bottom microtiter plate was filled (50 μl/well) with RPMI 1640. The compounds to be evaluated were placed in appropriate wells, and serial diluted in successive wells to provide 11 dilutions. The concentrations ranged from 64 through 0.06 μg/ml. An adjusted inoculum of fungi (50 μl) was added to each well and the plates were incubated at 35° C. for 24-48 hours. […] Nystatin and rapamycin were used for the purpose of comparison.

[2] = test system: A. niger GC 3091; assay: Antifungal activity, microtiter broth dilution MIC; details: 24-48 hours
Description: as §1

[3] = test system: A. niger GC 6591; assay: Antifungal activity, microtiter broth dilution MIC; details: 24-48 hours
Description: as §1

[4] = test system: C. albicans GC 3064; assay: Antifungal activity, microtiter broth dilution MIC; details: 24-48 hours
Description: as §1

[5] = test system: C. albicans GC 3065; assay: Antifungal activity, microtiter broth dilution MIC; details: 24-48 hours
Description: as §1

[6] = test system: C. albicans GC 3066; assay: Antifungal activity, microtiter broth dilution MIC; details: 24-48 hours
Description: as §1

[7] = test system: C. krussii GC 3067; assay: Antifungal activity, microtiter broth dilution MIC; details: RPMI 1640, 35° C., 24-48 hours
Description: as §1

[8] = test system: C. lusitaniae GC 3068; assay: Antifungal activity, microtiter broth dilution MIC; details: RPMI 1640, 35° C., 24-48 hours; for MIC: Clavispora lusitaniae
Description: as §1

[9] = test system: C. parapsilosis GC 3074; assay: Antifungal activity, microtiter broth dilution MIC; details: 24-48 hours
Description: as §1

[10] = test system: C. parapsilosis GC 3075; assay: Antifungal activity, microtiter broth dilution MIC; details: 24-48 hours
Description: as §1

[11] = test system: C. parapsilosis GC 3076; assay: Antifungal activity, microtiter broth dilution MIC; details: 24-48 hours
Description: as §1

[12] = test system: C. pseudotropicalis 3070; assay: Antifungal activity, microtiter broth dilution MIC; details: RPMI 1640, 35° C., 24-48 hours
Description: as §1

[13] = test system: C. tropicalis GC 3080; assay: Antifungal activity, microtiter broth dilution MIC; details: 24-48 hours
Description: as §1

[14] = test system: C. tropicalis GC 3081; assay: Antifungal activity, microtiter broth dilution MIC; details: 24-48 hours
Description: as §1

[15] = test system: 3T3 (ovarian) tumor cell line; assay: Antineoplastic activity, tumor cell growth inhibition (sulforhodamine B); details: Mus musculus, NIH3T3, 3T3 cells, 48 hours
Description: (§2) Antineoplastic activity for the compounds of this invention was confirmed by evaluating the antineoplastic activity of representative compounds of this invention (Compounds I-III) against six tumor cell lines in vitro. Briefly, tumor cells from six cell lines were placed in wells of a 96 well microtiter plate. The following tumor cell lines were used: 3T3 (ovarian), 3T3/H2N (ovarian—resistant to cis-platin), A431 (vulva epidermoid origin), SW620 (colon), SKBR3 (breast), and MDA-435 (breast). The tumors cells were grown in the presence of serial dilutions of the compound to be evaluated for 48 hours, and cell growth determined using a colorimetric procedure (sulforhrodamine B). The inhibition of growth was calculated compared to the number of cells at the time of test compound addition. Results are expressed as an IC50 (μg/ml); N/A indicates the compound was not evaluated against that cell line. The following IC50s was listed on Table 2.

[16] = test system: 3T3/H2N (ovarian—resistant to cis-platin) tumor cell line; assay: as above; details: 3T3/H2N cells, 48 hours
Description: as §2

[17] = test system: A431 (vulva epidermoid origin) tumor cell line; assay: as above; details: Homo sapiens, A-431, A431 cells, 48 hours
Description: as §2

[18] = test system: MDA-435 (breast) tumor cell line; assay: as above; details: MDA435 cells, 48 hours
Description: as §2

[19] = test system: SKBR3 (breast) tumor cell line; assay: as above; details: Homo sapiens, SK-BR-3, SKBR3 cells, 48 hours
Description: as §2

[20] = test system: SW620 (colon) tumor cell line; assay: as above; details: Homo sapiens, SW-620, SW620 cells, 48 hours
Description: as §2

[21] = test system: SH-SY5Y cells; assay: Neuroregeneration activity, neurite outgrowth; details: aphidicolin pretreated, mean ± SEM
Description: The neuroregeneration activity for the compounds of this invention was confirmed in a standard pharmacological test procedure by evaluating 1-oxo-rapamycin (Compound I) as representative compound of this invention, against SH-SY5Y cells in vitro [Gold et al., Exp Neurol 147: 269-278, 1997]. Briefly, SH-SY5Y cells were placed in 6-well plate treated with aphidicolin for 5 days followed by the test compounds using 6-well plates. For controls, wells were untreated, or treated with nerve growth factor (NGF) alone. Test wells were treated with NGF plus compound I or rapamycin. Cells were photographed at 168 hours. Analysis of neuritic lengths was performed on photographic prints using a Houston Instrument HI-PAD digitizing tablet connected to an IBM XT computer with appropriate software (Bioquant IV, R&M Biometrics, Nashville, Tenn.). Mean values for axonal areas were compared using by ANOVA (STATVIEW, Abacus Concepts, Inc., Berkeley, Calif. The following table summarizes the results that were obtained.

C[C@@H]1[C@H](O)[C@@H](C)/C=C/C=C/CC/C=C/C=C/C=C/C=C/C(O[C@H]2O[C@H](C)[C@@H](O)[C@H](N)[C@@H]2O)CC2O[C@](O)(CC(O)C(O)CCC(O)CC(O)CC(O)CC(=O)O[C@H]1C)CC(O)C2C(=O)O (some centres unmarked) [Nystatin, reference compound]
ANTIFUNGAL ACTIVITY (MIC) ([1]; A. fumigatus GC 3092, RPMI 1640, 35° C., 24-48 hours): 1 µg/mL | ANTIFUNGAL ACTIVITY (MIC) ([2]; RPMI 1640, 35° C.): 2 µg/mL | ANTIFUNGAL ACTIVITY (MIC) ([3]; RPMI 1640, 35° C.): 2 µg/mL | ANTIFUNGAL ACTIVITY (MIC) ([4]; RPMI 1640, 35° C.): 1 µg/mL | ANTIFUNGAL ACTIVITY (MIC) ([5]; RPMI 1640, 35° C.): 1 µg/mL | ANTIFUNGAL ACTIVITY (MIC) ([6]; RPMI 1640, 35° C.): 1 µg/mL | ANTIFUNGAL ACTIVITY (MIC) [7]: 1 µg/mL | ANTIFUNGAL ACTIVITY (MIC) ([8]; C. lusitaniae GC 3068, first listing (r26)): 0.50 µg/mL | ANTIFUNGAL ACTIVITY (MIC) ([8]; C. lusitaniae GC 3068, second listing (r28)): 1 µg/mL | ANTIFUNGAL ACTIVITY (MIC) ([9]; RPMI 1640, 35° C.): 1 µg/mL | ANTIFUNGAL ACTIVITY (MIC) ([10]; RPMI 1640, 35° C.): 0.50 µg/mL | ANTIFUNGAL ACTIVITY (MIC) ([11]; RPMI 1640, 35° C.): 0.50 µg/mL | ANTIFUNGAL ACTIVITY (MIC) [12]: 0.50 µg/mL | ANTIFUNGAL ACTIVITY (MIC) ([13]; RPMI 1640, 35° C.): 0.25 µg/mL | ANTIFUNGAL ACTIVITY (MIC) ([14]; RPMI 1640, 35° C.): 1 µg/mL

CO[C@H]1C[C@@H]2CC[C@@H](C)[C@@](O)(O2)C(=O)C(=O)N2CCCC[C@H]2C(=O)O[C@H]([C@H](C)C[C@@H]2CC[C@@H](O)[C@H](OC)C2)CC(=O)[C@H](C)/C=C(\C)[C@@H](O)[C@@H](OC)C(=O)[C@H](C)C[C@H](C)/C=C/C=C/C=C/1C [Rapamycin]
MIC ([1]; Aspergillus fumigatus, GC3092, read-out: ANTIFUNGAL ACTIVITY (MIC)): > 128 µg/mL | MIC ([2]; Aspergillus niger, GC3091, RPMI 1640, 35° C.): > 128 µg/mL | MIC ([3]; Aspergillus niger, GC6591, RPMI 1640, 35° C.): > 128 µg/mL | MIC ([4]; Candida albicans, GC3064, RPMI 1640, 35° C.): < 0.12 µg/mL | MIC ([5]; Candida albicans, GC3065, RPMI 1640, 35° C.): 0.5 µg/mL (≈ 0.547 µM) | MIC ([6]; Candida albicans, GC3066, RPMI 1640, 35° C.): < 0.12 µg/mL | MIC [7]: 4 µg/mL (≈ 4.38 µM) | MIC ([8]; GC3068, C. lusitaniae GC 3068, first listing (r26), read-out: ANTIFUNGAL ACTIVITY (MIC)): < 0.12 µg/mL | MIC ([8]; GC3068, read-out: ANTIFUNGAL ACTIVITY (MIC), C. lusitaniae GC 3068, second listing (r28)): 0.5 µg/mL (≈ 0.547 µM) | MIC ([9]; Lodderomyces parapsilosis, GC3074, RPMI 1640, 35° C.): 0.25 µg/mL (≈ 0.273 µM) | MIC ([10]; Lodderomyces parapsilosis, GC3075, RPMI 1640, 35° C.): < 0.12 µg/mL | MIC ([11]; Lodderomyces parapsilosis, GC3076, RPMI 1640, 35° C.): < 0.12 µg/mL | MIC ([12]; Kluyveromyces marxianus): < 0.12 µg/mL | MIC ([13]; Candida tropicalis, GC3080, RPMI 1640, 35° C.): 0.25 µg/mL (≈ 0.273 µM) | MIC ([14]; Candida tropicalis, GC3081, RPMI 1640, 35° C.): 0.25 µg/mL (≈ 0.273 µM) | IC50 [15]: 0.48 µg/mL (≈ 0.525 µM) | IC50 [16]: 1.7 µg/mL (≈ 1.86 µM) | IC50 [17]: 1.9 µg/mL (≈ 2.08 µM) | IC50 [18]: 1.3 µg/mL (≈ 1.42 µM) | IC50 [19]: 0.87 µg/mL (≈ 0.952 µM) | IC50 [20]: 2.3 µg/mL (≈ 2.52 µM) | Mean Neurite Lengths after 168 h, Neurite Length ([21]; NGF plus test compound): 261.4 ± 13.1 μm

NGF: nerve growth factor (NGF), control treatment alone and co-treatment in neurite test
Mean Neurite Lengths after 168 h, Neurite Length ([21]; NGF alone (control)): 196.5 ± 7.7 μm

— patent US6399625B1, “1-oxorapamycins” (Wyeth, priority 2000, dated 2002)
